# Biological target: hJAK3 kinase domain (aa781-end) (Homo sapiens (Human), UniProt P52333)
# Test: JAK3 activity inhibition, kinase reaction (HTRF, TK substrate-biotin)
# Experimental: JAK3 activity inhibitory effects of test compounds were evaluated by the following kinase reactions.
# In the kinase reactions, fused proteins (6His tag-fused hJAK3 kinase domain (aa781-end)) which were coexpressed in Sf21 cells and purified by Ni2+/NTA agarose were used.
# A well in which ATP was not added was set out as a blank well.
# Plates were let stand at room temperature for 10 minutes from starting reactions.
# One hour after the addition of the buffer for detection, fluorescence counts of each well were measured by a fluorescence microplate reader.
# Data were obtained by deducting the average Ratio of a blank well from Ratio of each well.
# Sequence of hJAK3 kinase domain (aa781-end) (P52333 781-1124 limits assumed): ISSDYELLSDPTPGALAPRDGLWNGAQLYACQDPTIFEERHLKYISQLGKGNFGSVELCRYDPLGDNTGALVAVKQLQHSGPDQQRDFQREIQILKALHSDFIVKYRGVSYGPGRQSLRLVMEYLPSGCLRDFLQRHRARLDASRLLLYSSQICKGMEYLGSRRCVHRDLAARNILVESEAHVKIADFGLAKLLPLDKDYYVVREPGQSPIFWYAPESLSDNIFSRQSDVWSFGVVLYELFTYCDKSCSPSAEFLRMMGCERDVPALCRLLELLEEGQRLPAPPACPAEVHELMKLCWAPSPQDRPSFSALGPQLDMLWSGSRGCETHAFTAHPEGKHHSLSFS
row,IC50 [nM],SMILES
1,110,N#CCC(=O)N1CCCCC12CCN(c1c(Cl)cnc3[nH]ncc13)C2 (racemic) [Compound 93]
2,550,c1ccc(CN2CCCC23CCN(c2ncnc4[nH]ccc24)C3)cc1 (racemic) [Compound 90]

row,SMILES,IC50 [nM]
1,N#CCCN1CCCC12CCN(c1ncnc3[nH]ccc13)C2 (racemic) [Compound 53],56

# Source: patent US8609647B2, “Nitrogen-containing spirocyclic compounds and pharmaceutical uses thereof” (Japan Tobacco Inc., priority 2009, dated 2013)
